# Experimental data taken from US20090105239A1, “2-PYRIDINE DERIVATIVES AS INHIBITORS OF NEUTROPHILE ELASTASE” (priority 2005, published 2009).
# Target: T1, Human Neutrophil Elastase (HNE) (Homo sapiens, UniProt P08246)
# T1 construct: Human Neutrophil Elastase (HNE) purified from serum; purchased Calbiochem 324681; host or cells: purified from human serum (so in the source)
# T1 sequence (P08246 30-247 limits assumed): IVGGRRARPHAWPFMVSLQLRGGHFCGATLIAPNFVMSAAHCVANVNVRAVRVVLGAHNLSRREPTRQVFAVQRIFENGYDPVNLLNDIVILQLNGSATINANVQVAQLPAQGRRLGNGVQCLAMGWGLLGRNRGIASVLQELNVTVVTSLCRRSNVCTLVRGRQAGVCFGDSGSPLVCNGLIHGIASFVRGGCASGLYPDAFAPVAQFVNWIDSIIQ
# Assay: Human Neutrophil Elastase Quenched-FRET Assay
# Assay type: biochemical
# Details: HNE purified from serum 1.7 nM, substrate MeOSuc-AAPV-AMC 100 μM, 30 minutes at room temperature; read-out: Inhibition of Human Neutrophil Elastase IC50
# Experimental: Human Neutrophil Elastase Quenched-FRET Assay
# HNE was stored in 50 mM sodium acetate (NaOAc), 200 mM sodium chloride (NaCl), pH 5.5 with added 30% glycerol at −20° C. […] The substrate was stored in dimethyl sulphoxide (DMSO) at −20° C. […] The assay buffer constitution was: 100 mM Tris(hydroxymethyl)aminomethane (TRIS) (pH 7.5) and 500 mM NaCl. The enzyme and the compounds were incubated at room temperature for 15 minutes. Then 30 μl substrate in assay buffer was added. The assay was incubated for 30 minutes at room temperature. […] The assay was then stopped by adding 60 μl stop solution (140 mM acetic acid, 200 mM sodium monochloroacetate, 60 mM sodium acetate, pH 4.3).
row,IC50 [nM],SMILES
1,9,"Cc1c([S+]([O-])c2ccc(C#N)cc2)cc(C(=O)NCC2(O)CC2)c(=O)n1-c1cccc(C(F)(F)F)c1 (stereo not shown) [Example 27, 5-[(4-Cyanophenyl)sulfinyl]-N-[(1-hydroxycyclopropyl)methyl]-6-methyl-2-oxo-1-[3-(trifluoromethyl)phenyl]-1,2-dihydropyridine-3-carboxamide]"
2,4,"Cc1c([S+]([O-])c2ccc(C#N)cc2)cc(C(=O)NCC(C)O)c(=O)n1-c1cccc(C(F)(F)F)c1 (stereo not shown) [Example 49, 5-[(4-Cyanophenyl)sulfinyl]-N-(2-hydroxypropyl)-6-methyl-2-oxo-1-[3-(trifluoromethyl)phenyl]-1,2-dihydropyridine-3-carboxamide]"
3,14,"CC(=O)Nc1ccc(S(=O)(=O)c2cc(C(=O)NCc3ccc(S(C)(=O)=O)cc3)c(=O)n(-c3cccc(C(F)(F)F)c3)c2C)cc1 [Example 59, 5-{[4-(Acetylamino)phenyl]sulfonyl}-6-methyl-N-[4-(methylsulfonyl)benzyl]-2-oxo-1-[3-(trifluoromethyl)phenyl]-1,2-dihydropyridine-3-carboxamide]"
4,45,"Cc1c(S(=O)(=O)O)cc(C(=O)NCc2ccc(S(C)(=O)=O)cc2)c(=O)n1-c1cccc(C(F)(F)F)c1 [Example 86, 2-Methyl-5-({[4-(methylsulfonyl)benzyl]amino}carbonyl)-6-oxo-1-[3-(trifluoromethyl)phenyl]-1,6-dihydropyridine-3-sulfonic acid]"
